Columns and labels:
[1] = cited from earlier work
[2] = target: T-type (Cav3.2) calcium channel (Homo sapiens, UniProt O95180); experiment: T-type calcium channel block (statement of selectivity)
[3] = Phase 1 first-in-human safety, tolerability and pharmacokinetic studies of Compound A in healthy subjects; assay type: in vivo
Method: (§1) In this study subjects with diabetic neuropathic pain were administered 100 mg BID up to 6 weeks and dosing has been completed. Nevertheless, if there is any new safety signal observed during this study, dosing of Compound A can be discontinued based on the joint decision of the investigators and study sponsor's medical monitor.
(§2) Single doses of Compound A up to 170 mg were well-tolerated in healthy subjects. The Compound A dose of 100 mg twice daily (BID) is the clinical dose used in the ongoing Phase 2a study in subjects with diabetic neuropathic pain. The dose of 100 mg is selected in the current study to explore the effect of Compound A in a microneurography model in order to bridge the efficacy outcome of Compound A in the Phase 2a study.
The safety, tolerability, and pharmacokinetics of Compound A in humans have been evaluated in 94 healthy adult subjects in the Phase 1 first-in-human (FIH) study with the single dose up to 170 mg and multiple doses up to 160 mg for 7 to 14 days. […] Given that Compound A is an investigational drug and this study will be conducted in diabetic patient population that generally has high risk factors, inclusion and exclusion have been carefully established to avoid exposing patients to undue risk. In addition, adequate safety monitoring procedures and stopping criteria are placed in the protocol.

[4] = Ongoing Phase 2 efficacy and safety study in subjects with diabetic neuropathic pain; assay type: in vivo, human; conditions: 100 mg BID up to 6 weeks
Method: as §1, §2

[5] = 94 healthy adult subjects, single dose up to 170 mg, multiple doses up to 160 mg for 7 to 14 days

Chain of T-type (Cav3.2) calcium channel (O95180 whole entry): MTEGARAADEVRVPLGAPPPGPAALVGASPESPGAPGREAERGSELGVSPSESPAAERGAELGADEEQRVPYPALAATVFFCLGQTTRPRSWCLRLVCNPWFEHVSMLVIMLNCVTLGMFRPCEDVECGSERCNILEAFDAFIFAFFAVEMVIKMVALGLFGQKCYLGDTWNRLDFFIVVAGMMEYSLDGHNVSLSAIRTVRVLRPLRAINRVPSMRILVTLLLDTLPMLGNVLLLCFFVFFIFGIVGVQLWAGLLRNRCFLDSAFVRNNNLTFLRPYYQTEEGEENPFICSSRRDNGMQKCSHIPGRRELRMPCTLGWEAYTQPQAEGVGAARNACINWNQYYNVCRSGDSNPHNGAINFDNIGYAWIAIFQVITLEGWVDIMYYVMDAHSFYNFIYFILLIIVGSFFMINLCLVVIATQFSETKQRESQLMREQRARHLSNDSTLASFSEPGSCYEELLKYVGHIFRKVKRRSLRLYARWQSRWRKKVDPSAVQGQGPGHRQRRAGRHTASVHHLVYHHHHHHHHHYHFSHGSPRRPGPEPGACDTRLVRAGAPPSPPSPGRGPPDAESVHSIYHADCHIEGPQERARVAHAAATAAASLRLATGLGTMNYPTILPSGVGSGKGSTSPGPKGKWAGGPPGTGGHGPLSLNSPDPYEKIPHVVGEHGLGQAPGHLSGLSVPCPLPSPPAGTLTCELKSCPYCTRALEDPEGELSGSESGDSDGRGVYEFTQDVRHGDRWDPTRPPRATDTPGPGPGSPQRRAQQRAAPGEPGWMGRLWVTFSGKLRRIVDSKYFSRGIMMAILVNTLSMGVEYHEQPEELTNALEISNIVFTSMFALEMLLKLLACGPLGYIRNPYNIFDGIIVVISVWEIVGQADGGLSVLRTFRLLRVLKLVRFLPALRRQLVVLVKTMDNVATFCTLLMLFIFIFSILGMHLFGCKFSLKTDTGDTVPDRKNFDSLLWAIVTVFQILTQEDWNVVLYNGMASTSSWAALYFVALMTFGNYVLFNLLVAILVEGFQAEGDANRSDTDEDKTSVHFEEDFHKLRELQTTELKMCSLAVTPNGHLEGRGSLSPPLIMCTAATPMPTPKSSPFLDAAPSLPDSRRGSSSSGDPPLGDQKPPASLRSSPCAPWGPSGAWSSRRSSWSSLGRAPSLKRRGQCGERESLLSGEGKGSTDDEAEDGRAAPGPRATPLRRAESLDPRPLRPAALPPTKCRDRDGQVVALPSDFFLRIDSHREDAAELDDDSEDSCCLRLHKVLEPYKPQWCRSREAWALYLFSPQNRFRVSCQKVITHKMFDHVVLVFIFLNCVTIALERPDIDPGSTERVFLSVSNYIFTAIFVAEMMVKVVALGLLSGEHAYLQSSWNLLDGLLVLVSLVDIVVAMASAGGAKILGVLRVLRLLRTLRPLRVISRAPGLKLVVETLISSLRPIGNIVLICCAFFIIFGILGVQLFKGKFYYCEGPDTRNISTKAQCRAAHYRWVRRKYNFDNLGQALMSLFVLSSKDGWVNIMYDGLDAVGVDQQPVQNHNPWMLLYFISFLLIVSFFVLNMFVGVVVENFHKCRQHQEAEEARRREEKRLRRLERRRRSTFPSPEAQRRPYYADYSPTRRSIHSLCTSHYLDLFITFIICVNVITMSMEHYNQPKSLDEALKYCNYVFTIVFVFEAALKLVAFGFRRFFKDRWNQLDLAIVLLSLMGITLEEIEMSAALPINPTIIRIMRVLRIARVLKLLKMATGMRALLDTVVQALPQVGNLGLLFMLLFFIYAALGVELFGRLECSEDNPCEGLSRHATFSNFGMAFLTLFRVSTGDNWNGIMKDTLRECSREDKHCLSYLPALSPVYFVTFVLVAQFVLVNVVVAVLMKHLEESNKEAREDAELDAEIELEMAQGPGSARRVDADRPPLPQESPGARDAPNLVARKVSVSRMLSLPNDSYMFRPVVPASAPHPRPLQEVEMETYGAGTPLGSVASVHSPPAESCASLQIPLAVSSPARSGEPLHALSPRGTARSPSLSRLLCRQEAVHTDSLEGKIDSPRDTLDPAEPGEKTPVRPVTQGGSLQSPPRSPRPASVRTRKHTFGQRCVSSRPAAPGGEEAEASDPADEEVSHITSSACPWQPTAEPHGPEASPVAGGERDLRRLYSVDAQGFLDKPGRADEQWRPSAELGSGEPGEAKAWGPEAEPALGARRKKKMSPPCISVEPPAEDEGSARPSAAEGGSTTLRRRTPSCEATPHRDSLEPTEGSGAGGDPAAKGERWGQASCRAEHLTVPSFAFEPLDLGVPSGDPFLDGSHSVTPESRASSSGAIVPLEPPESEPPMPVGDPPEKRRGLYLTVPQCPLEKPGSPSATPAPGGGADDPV

| Structure (SMILES) | effect on pain ([1]; IV infusion 2 mg/kg or 5 mg/kg, patients with painful diabetic neuropathy) | pain relief versus placebo ([1]; IV infusion 5 mg/kg, patients with painful diabetic neuropathy) | duration of pain relief following infusion ([1]; patients with diabetic neuropathy) | effect of systemic administration in neuropathic pain conditions ([1]; systemic administration, several neuropathic pain conditions) | selectivity as calcium channel blocker [2] | tolerability ([3]; 94 healthy adult subjects, single dose up to 170 mg and multiple doses up to 160 mg for 7 to 14 days) | dose dependence of occurrence of adverse events [3, 5] | findings in vital signs, ECG and laboratory tests [3, 5] | severity of adverse events [3, 5] | safety findings ([3]; Phase 1 studies in healthy adults and healthy elderly subjects) | adverse drug reactions in the current clinical program ([3]; current clinical program) | tolerability of single doses ([3]; single doses up to 170 mg, healthy subjects) | safety findings [4] |
| --- | --- | --- | --- | --- | --- | --- | --- | --- | --- | --- | --- | --- | --- |
| CCN(CC)CC(=O)Nc1c(C)cccc1C [Lidocaine] | reduction of pain | consistent superiority to placebo | up to 21 days | analgesic effects |  |  |  |  |  |  |  |  |  |
| O=C(c1cc(S(=O)(=O)Nc2ccccc2F)c(F)cc1Cl)N1CCN2CCC[C@@H]2C1 [Compound A, 4-chloro-2-fluoro-N-(2-fluorophenyl)-5-[(8aR)-hexahydropyrrolo[1,2-a]pyrazin-2(1H)-ylcarbonyl]benzenesulfonamide] |  |  |  |  | highly selective | well tolerated | does not appear to be dose-dependent | no clinically relevant findings | mild except one event | no clinically important safety findings | no adverse drug reactions identified | well-tolerated | no clinically important safety findings |

Reference: patent publication US20130178477A1, “METHODS OF TREATING DIABETIC NEUROPATHY USING BENZENESULFONAMIDES” (AbbVie Inc., priority 2012, published 2013)
